This note sets out measurements from patent publication US10669290B2, “Beta-lactamase inhibitors” (priority 2012, dated 2020).

One experiment deals with K.P. 156319 KPC-3. The experiment is described as follows: Broth microdilution MIC, K. pneumoniae 156319. The format is cell-based. The settings on record: for MIC of exemplary compounds in presence of fixed β-lactams, Fixed Mero, K.P. 156319 KPC-3: fixed meropenem 4 μg/mL, CAMHB, 16-20 hours 37° C. In general terms: In broth dilution the organism is exposed to a series of concentrations in liquid medium.

Experiment [1] relates to K.P. A-1797 KPC-2 VIM-4. As to the kind of experiment: Broth microdilution MIC, K. pneumoniae A-1797. The format is cell-based. The following applies: Klebsiella pneumoniae; partner antibiotic alone, K. pneumoniae expressing KPC-2 and VIM-4.
The subject of a further experiment is P. aerug. Ps296 VIM-2. As to the kind of experiment: Broth microdilution MIC, P. aeruginosa Ps296. Type of experiment: cell-based. The settings on record: fixed meropenem 4 μg/mL, CAMHB, 16-20 hours 37° C. Summed up: (§1)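 CAMHB; compound 32–0.25 μg/mL, 2-fold dilutions; β-lactam partner static at 4 μg/ml; CLSI inoculum from 3-5 h culture; 16-20 h, 37° C; visual MIC.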

Another experiment addresses T1, VIM-2 (Escherichia coli, UniProt Q5U7L7).
T1 construct: made in house; host or cells: E. coli BL21 (DE3)
The experiment is described as follows: β-Lactamase inhibition, VIM-2 (nitrocefin substrate). Type of experiment: biochemical. The method, then: For SHV-5, Kpc-2, p99AmpC and OXA-1 β-lactamases, E. coli BL21 (DE3) bacterial cells carrying expression plasmids (expressed as native untagged proteins) for the individual β-lactamases were grown in 1 L of Superbroth (Teknova Inc. Hollister, Calif.) supplemented with 100 μg/ml kanamycin selection and 1×5052 (0.5% glycerol, 0.05% glucose and 0.2% α-lactose) at 35° C. for 18-20 hours. Cells were harvested by centrifugation (4,000×g, 4° C., 20 min), resuspended in 50 ml of 10 mM HEPES pH 7.5 ( 1/20 of the initial volume). The cells were lysed by sonication (5 pulses of 45 seconds) at 45 W on ice. The lysates were clarified by centrifugation at 10,000×g for 40 minutes at 4° C. Samples were diluted 5-fold in 50 mM sodium acetate pH 5.0, stored overnight at 4° C., after which they were centrifuged at 10,000×g for 30 minutes to clarify, and filtered through 0.45 µm filters. The samples were loaded onto a 5 ml Capto S sepharose cation exchange column (GE Healthcare) pre-equilibrated with 50 mM sodium acetate pH 5.0. […] Active fractions were pooled concentrated, quantitated by BCA protein determination (Thermo Scientific, Rockford, Ill.), dialyzed into PBS and frozen at −80° C. in 20% glycerol until use. […]
(§2) An equal volume of diluted enzyme stock was added, and the plates were incubated at 37° C. for 15 min. […] Absorbance at 486 nm was immediately monitored for 10 min using a Biotek Powerwave XS2 microplate spectrophotometer using the GEN5 software package (Biotek Instruments, Winooski Vt.). In an analogous fashion, imipenem was used as substrate for Kpc-2 and Cefotaxime was used for SHV-5, while changes in absorbance upon hydrolysis of the β-lactam ring were monitored at 300 nm and 260 nm respectively in UV-transparent 96-well microtiter assay plates. Maximum rates of hydrolysis were compared to those in control wells (without inhibitors), and percentages of enzyme inhibition were calculated for each concentration of inhibitor. […]

The target in a further experiment is T2, SHV-5 (Klebsiella pneumoniae, UniProt P0A3M1).
T2 construct: made in house; host or cells: E. coli BL21 (DE3)
The experiment is described as follows: β-Lactamase inhibition, SHV-5 (cefotaxime substrate). The format is biochemical. The protocol: (§3) For SHV-5, Kpc-2, p99AmpC and OXA-1 β-lactamases, E. coli BL21 (DE3) bacterial cells carrying expression plasmids (expressed as native untagged proteins) for the individual β-lactamases were grown in 1 L of Superbroth (Teknova Inc. Hollister, Calif.) supplemented with 100 μg/ml kanamycin selection and 1×5052 (0.5% glycerol, 0.05% glucose and 0.2% α-lactose) at 35° C. for 18-20 hours. Cells were harvested by centrifugation (4,000×g, 4° C., 20 min), resuspended in 50 ml of 10 mM HEPES pH 7.5 ( 1/20 of the initial volume). The cells were lysed by sonication (5 pulses of 45 seconds) at 45 W on ice. The lysates were clarified by centrifugation at 10,000×g for 40 minutes at 4° C. Samples were diluted 5-fold in 50 mM sodium acetate pH 5.0, stored overnight at 4° C., after which they were centrifuged at 10,000×g for 30 minutes to clarify, and filtered through 0.45 µm filters. The samples were loaded onto a 5 ml Capto S sepharose cation exchange column (GE Healthcare) pre-equilibrated with 50 mM sodium acetate pH 5.0. […] Active fractions were pooled concentrated, quantitated by BCA protein determination (Thermo Scientific, Rockford, Ill.), dialyzed into PBS and frozen at −80° C. in 20% glycerol until use.
as §2

The next experiment concerns the target T3, p99 AmpC (Enterobacter cloacae, UniProt P05364).
T3 construct: made in house; host or cells: E. coli BL21 (DE3)
As to the kind of experiment: β-Lactamase inhibition, p99 AmpC (nitrocefin substrate). Type of experiment: biochemical. The method, then: For SHV-5, Kpc-2, p99AmpC and OXA-1 β-lactamases, E. coli BL21 (DE3) bacterial cells carrying expression plasmids (expressed as native untagged proteins) for the individual β-lactamases were grown in 1 L of Superbroth (Teknova Inc. Hollister, Calif.) supplemented with 100 μg/ml kanamycin selection and 1×5052 (0.5% glycerol, 0.05% glucose and 0.2% α-lactose) at 35° C. for 18-20 hours. Cells were harvested by centrifugation (4,000×g, 4° C., 20 min), resuspended in 50 ml of 10 mM HEPES pH 7.5 ( 1/20 of the initial volume). The cells were lysed by sonication (5 pulses of 45 seconds) at 45 W on ice. The lysates were clarified by centrifugation at 10,000×g for 40 minutes at 4° C. Samples were diluted 5-fold in 50 mM sodium acetate pH 5.0, stored overnight at 4° C., after which they were centrifuged at 10,000×g for 30 minutes to clarify, and filtered through 0.45 µm filters. The samples were loaded onto a 5 ml Capto S sepharose cation exchange column (GE Healthcare) pre-equilibrated with 50 mM sodium acetate pH 5.0. The column was washed with 5 column volumes of 50 mM sodium acetate pH 5.0 to wash out unbound protein and a linear gradient of NaCl (0 to 500 mM) was used to elute the protein (over 16 CV) from the column. Fractions were assayed for β-lactamase activity using Centa (Calbiochem, Gibbstown, N.J.) or Nitrocefin (EMD Millipore chemicals, Darmstadt, Germany) as a reporter β-lactamase substrate for activity in the isolated fractions. Active fractions were pooled, concentrated and further purified by gel filtration chromatography on a Superdex 75 prep grade gel filtration column (GE Healthcare, Piscataway, N.J.) pre-equilibrated in 50 mM Hepes pH 7.5, 150 mM NaCl. Active fractions were pooled concentrated, quantitated by BCA protein determination (Thermo Scientific, Rockford, Ill.), dialyzed into PBS and frozen at −80° C. in 20% glycerol until use.
An equal volume of diluted enzyme stock was added, and the plates were incubated at 37° C. for 15 min. Nitrocefin was used as substrate for p99 AmpC, VIM-2 and OXA-1 and dispensed into each well at a final concentration of 100 μM. Absorbance at 486 nm was immediately monitored for 10 min using a Biotek Powerwave XS2 microplate spectrophotometer using the GEN5 software package (Biotek Instruments, Winooski Vt.). In an analogous fashion, imipenem was used as substrate for Kpc-2 and Cefotaxime was used for SHV-5, while changes in absorbance upon hydrolysis of the β-lactam ring were monitored at 300 nm and 260 nm respectively in UV-transparent 96-well microtiter assay plates. Maximum rates of hydrolysis were compared to those in control wells (without inhibitors), and percentages of enzyme inhibition were calculated for each concentration of inhibitor. The concentration of inhibitor needed to reduce the initial rate of hydrolysis of substrate by 50% (IC50) was calculated as the residual activity of β-lactamase at 486 nm using GraFit version 7 kinetics software package (Erithacus Software, Surrey, UK).
Using the methodology described above, examples of the current invention were evaluated for their ability to inhibit β-lactamase enzymes from all four Ambler classifications (A through D). […] NT=Not tested.

The next experiment deals with E. coli ESBL4 CTX-M-15. The experiment is described as follows: Broth microdilution MIC, E. coli ESBL4. The format is cell-based. The following applies: fixed ceftazidime 4 μg/mL, CAMHB, 16-20 hours 37° C. The essentials: as §1
A further experiment deals with T4, OXA-1 (Escherichia coli, UniProt P13661).
T4 construct: made in house; host or cells: E. coli BL21 (DE3)
As to the kind of experiment: β-Lactamase inhibition, OXA-1 (nitrocefin substrate). Type of experiment: biochemical. The protocol:
as §3, §2

The subject of experiment [2] is K.P. A-1797 KPC-2 VIM-4. The experiment is described as follows: Broth microdilution MIC, K. pneumoniae A-1797. The following applies: fixed meropenem 4 μg/mL, CAMHB, 16-20 hours 37° C. The format is cell-based.
The test system of another experiment is E. cl 144200 p99 AmpC. The experiment is described as follows: Broth microdilution MIC, E. cloacae 144200. Type of experiment: cell-based. The settings on record: fixed ceftazidime 4 μg/mL, CAMHB, 16-20 hours 37° C. The essentials:
as §1

The next experiment addresses T5, KPC-2 (Klebsiella pneumoniae, UniProt Q9F663).
T5 construct: made in house; host or cells: E. coli BL21 (DE3)
As to the kind of experiment: β-Lactamase inhibition, KPC-2 (imipenem substrate). Type of experiment: biochemical. The method, then:
as §3, §2

The test system of a further experiment is S. aureus MSSA-7 PC-1. As to the kind of experiment: Broth microdilution MIC, S. aureus MSSA-7. The format is cell-based. The settings on record: Staphylococcus aureus, partner antibiotic alone, S. aureus producing Class A penicillinase PC-1.

≈ marks a conversion by molar mass, not a printed value.

T3 sequence (P05364 21-381): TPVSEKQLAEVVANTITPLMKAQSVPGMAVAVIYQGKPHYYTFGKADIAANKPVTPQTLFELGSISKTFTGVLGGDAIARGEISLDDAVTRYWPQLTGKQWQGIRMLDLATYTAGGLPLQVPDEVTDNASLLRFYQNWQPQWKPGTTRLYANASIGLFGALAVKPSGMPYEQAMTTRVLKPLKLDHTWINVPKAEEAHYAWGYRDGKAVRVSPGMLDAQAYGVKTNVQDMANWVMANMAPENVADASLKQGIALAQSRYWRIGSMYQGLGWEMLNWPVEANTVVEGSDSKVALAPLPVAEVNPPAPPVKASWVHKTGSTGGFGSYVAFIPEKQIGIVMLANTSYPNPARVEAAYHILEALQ
T4 sequence (P13661 26-276): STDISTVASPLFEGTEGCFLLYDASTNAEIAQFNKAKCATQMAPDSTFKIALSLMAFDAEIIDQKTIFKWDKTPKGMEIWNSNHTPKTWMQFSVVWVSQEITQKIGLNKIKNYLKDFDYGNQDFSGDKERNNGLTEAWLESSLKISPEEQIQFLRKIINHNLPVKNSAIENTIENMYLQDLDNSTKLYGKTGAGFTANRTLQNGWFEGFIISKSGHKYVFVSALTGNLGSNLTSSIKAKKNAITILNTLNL
T5 sequence (Q9F663 25-293 limits assumed): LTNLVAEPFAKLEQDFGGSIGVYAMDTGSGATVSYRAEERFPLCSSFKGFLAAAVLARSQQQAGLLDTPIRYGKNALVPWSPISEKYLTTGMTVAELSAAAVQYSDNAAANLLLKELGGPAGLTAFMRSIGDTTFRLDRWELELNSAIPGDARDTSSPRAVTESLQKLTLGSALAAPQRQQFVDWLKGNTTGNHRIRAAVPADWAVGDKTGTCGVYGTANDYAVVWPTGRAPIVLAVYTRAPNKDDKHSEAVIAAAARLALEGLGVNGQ
T2 sequence (P0A3M1 22-286): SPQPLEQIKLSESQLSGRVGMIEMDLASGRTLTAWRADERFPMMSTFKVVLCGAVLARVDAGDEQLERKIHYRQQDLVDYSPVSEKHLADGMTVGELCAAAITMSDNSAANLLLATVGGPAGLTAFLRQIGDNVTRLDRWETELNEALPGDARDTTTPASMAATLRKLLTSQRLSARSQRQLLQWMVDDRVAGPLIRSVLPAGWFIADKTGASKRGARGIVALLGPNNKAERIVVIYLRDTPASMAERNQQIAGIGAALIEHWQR

For `C[C@@H](O)[C@H]1C(=O)N2C(C(=O)O)=C(S[C@@H]3CN[C@H](C(=O)N(C)C)C3)[C@H](C)[C@H]12` [Meropenem, reference compound], the minimum inhibitory concentration (MIC) (commonly the smallest concentration in the dilution series that meets the test's criterion for growth inhibition) in the experiment with K.P. 156319 KPC-3 (Klebsiella pneumoniae, read-out: MIC alone) is greater than 128 µg/mL; with K.P. A-1797 KPC-2 VIM-4 [1] it was 64 µg/mL (≈ 167 µM).

Turning to `N[C@H]1CC(C(=O)N[C@H]2Cc3cccc(C(=O)O)c3OB2O)C[C@@H]1N` (mixture of isomers) [Example 19, (3R)-3-[[(3S,4S)-3,4-diaminocyclopentanecarbonyl]amino]-2-hydroxy-3,4-dihydro-1,2-benzoxaborinine-8-carboxylic acid and (3R)-3-[[(3R,4R)-3,4-diaminocyclopentanecarbonyl]amino]-2-hydroxy-3,4-dihydro-1,2-benzoxaborinine-8-carboxylic acid], the “MIC of exemplary compounds in presence of fixed β-lactams, Fixed Mero, P. aerug. Ps296 VIM-2” value in the experiment on P. aerug. Ps296 VIM-2 is on record as “C (C represents the MIC in the presence of <4 μg/mL of a β-lactamase inhibitor of exemplary compounds)”. Further, the concentration for half-maximal inhibition (IC50) (in general, the concentration needed to halve the response being measured) at VIM-2 is less than 100 nM; on SHV-5 it was 100 to 1000 nM; on p99 AmpC, less than 100 nM; against OXA-1, less than 100 nM; against KPC-2, less than 100 nM. For the same molecule, the “MIC of exemplary compounds in presence of fixed β-lactams, Fixed CAZ, E. coli ESBL4 CTX-M-15” value in the experiment on E. coli ESBL4 CTX-M-15 is given as “C (C represents the MIC in the presence of <4 μg/mL of a β-lactamase inhibitor of exemplary compounds)”. For the same molecule, the “MIC of exemplary compounds in presence of fixed β-lactams, Fixed Mero, K.P. A-1797 KPC-2 VIM-4” value in the experiment with K.P. A-1797 KPC-2 VIM-4 [2] is recorded as “C (C represents the MIC in the presence of <4 μg/mL of a β-lactamase inhibitor of exemplary compounds)”. For the same molecule, the “MIC of exemplary compounds in presence of fixed β-lactams, Fixed CAZ, E. cl 144200 p99 AmpC” value with E. cl 144200 p99 AmpC is “C (C represents the MIC in the presence of <4 μg/mL of a β-lactamase inhibitor of exemplary compounds)”. Besides, in the experiment on K.P. 156319 KPC-3, the “MIC of exemplary compounds in presence of fixed β-lactams, Fixed Mero, K.P. 156319 KPC-3” value was “C (C represents the MIC in the presence of <4 μg/mL of a β-lactamase inhibitor of exemplary compounds)”.

In the case of `CCN1CCN(C(=O)N[C@@H](C(=O)N[C@@H]2C(=O)N3[C@@H]2SC(C)(C)[C@@H]3C(=O)O)c2ccccc2)C(=O)C1=O` [Piperacillin], the lowest concentration to inhibit growth against S. aureus MSSA-7 PC-1 (MIC) was 64 µg/mL (≈ 124 µM).

`NC[C@@H]1CC[C@@H](CC(=O)N[C@H]2Cc3cccc(C(=O)O)c3OB2O)C[C@H]1CN` (mixture of isomers) [Example 18, (3R)-3-[[2-[(1S,3S,4S)-3,4-bis(aminomethyl)cyclohexyl]acetyl]amino]-2-hydroxy-3,4-dihydro-1,2-benzoxaborinine-8-carboxylic acid and (3R)-3-[[2-[(1R,3R,4R)-3,4-bis(aminomethyl)cyclohexyl]acetyl]amino]-2-hydroxy-3,4-dihydro-1,2-benzoxaborinine-8-carboxylic acid]: the “MIC of exemplary compounds in presence of fixed β-lactams, Fixed Mero, P. aerug. Ps296 VIM-2” value in the experiment on P. aerug. Ps296 VIM-2 was “C (C represents the MIC in the presence of <4 μg/mL of a β-lactamase inhibitor of exemplary compounds)”. Moreover, the IC50 on VIM-2, on SHV-5, on p99 AmpC, on OXA-1 and against KPC-2 was less than 100 nM throughout. The “MIC of exemplary compounds in presence of fixed β-lactams, Fixed CAZ, E. coli ESBL4 CTX-M-15” value with E. coli ESBL4 CTX-M-15 was “C (C represents the MIC in the presence of <4 μg/mL of a β-lactamase inhibitor of exemplary compounds)”. In addition, in the experiment on K.P. A-1797 KPC-2 VIM-4 [2], the “MIC of exemplary compounds in presence of fixed β-lactams, Fixed Mero, K.P. A-1797 KPC-2 VIM-4” value is “B (B represents the MIC in the presence of between 8 and 32 μg/mL of a β-lactamase inhibitor of exemplary compounds)”. The “MIC of exemplary compounds in presence of fixed β-lactams, Fixed CAZ, E. cl 144200 p99 AmpC” value in the experiment on E. cl 144200 p99 AmpC is “C (C represents the MIC in the presence of <4 μg/mL of a β-lactamase inhibitor of exemplary compounds)”. For the same molecule, the “MIC of exemplary compounds in presence of fixed β-lactams, Fixed Mero, K.P. 156319 KPC-3” value with K.P. 156319 KPC-3 was “C (C represents the MIC in the presence of <4 μg/mL of a β-lactamase inhibitor of exemplary compounds)”.
